Assays:
Assay type in all cases: cell-based
[1] = target: T1, SMARCA4 (Homo sapiens, UniProt P51532); test: SMARCA4 Western blot degradation in MV4-11 cells; conditions: 24 h; for Dmax: MV4-11, MV4-11 cells, read-out: SMARCA4 MSD MV411 degradation 24 h: average Dmax %; for DC50: MV4-11 cells, read-out: SMARCA4 MSD MV411 degradation 24 h: Mean external-Abs DC50
T1 construct: SMARCA2/SMARCA4 protein degradation selectivity in MV4-11 cells; endogenous in cells; host or cells: MV4-11
Procedure, shortened: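 Protein levels quantified by LI-COR Western blot (beta-actin loading control) in RIPA lysates of MV4-11 cells after 24 h compound exposure. Degradation reported as DC50, Dmax % at 24 h and SMARCA2 vs SMARCA4 selectivity, each binned into letter codes.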

[2] = target: T2, SMARCA2 (Homo sapiens, UniProt P51531); test: SMARCA2 Western blot degradation in MV4-11 cells; parameters: SMARCA2/SMARCA4 protein degradation selectivity in MV4-11 cells; endogenous in cells; host or cells: MV4-11; conditions: for Dmax: MV4-11, MV4-11 cells, read-out: SMARCA2 MSD MV411 degradation 24 h: average Dmax %; for Dmax / DC50: 24 h; for DC50 / Selectivity in MV411: MV4-11 cells; for DC50: read-out: SMARCA2 MSD MV411 degradation 24 h: Mean external-Abs DC50; for Selectivity in MV411: SMARCA2/4 selectivity
[3] = target: T2, SMARCA2; test: MSD SMARCA2 degradation in A549 cell line; conditions: 24 h; for Dmax: A549, A549 cells; for DC50: A549 cells, read-out: SMARCA2 MSD A549 degradation 24 h: Average external-Abs DC50
Procedure, shortened: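 SMARCA2 protein remaining after 24 h exposure of A549 cells (top concentration 1000 nM, 3-fold dilutions) was measured by MSD electrochemiluminescence immunoassay of cell lysates. Results are given as binned DC50 and maximal degradation (Dmax) codes.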

T2 sequence (P51531 whole entry): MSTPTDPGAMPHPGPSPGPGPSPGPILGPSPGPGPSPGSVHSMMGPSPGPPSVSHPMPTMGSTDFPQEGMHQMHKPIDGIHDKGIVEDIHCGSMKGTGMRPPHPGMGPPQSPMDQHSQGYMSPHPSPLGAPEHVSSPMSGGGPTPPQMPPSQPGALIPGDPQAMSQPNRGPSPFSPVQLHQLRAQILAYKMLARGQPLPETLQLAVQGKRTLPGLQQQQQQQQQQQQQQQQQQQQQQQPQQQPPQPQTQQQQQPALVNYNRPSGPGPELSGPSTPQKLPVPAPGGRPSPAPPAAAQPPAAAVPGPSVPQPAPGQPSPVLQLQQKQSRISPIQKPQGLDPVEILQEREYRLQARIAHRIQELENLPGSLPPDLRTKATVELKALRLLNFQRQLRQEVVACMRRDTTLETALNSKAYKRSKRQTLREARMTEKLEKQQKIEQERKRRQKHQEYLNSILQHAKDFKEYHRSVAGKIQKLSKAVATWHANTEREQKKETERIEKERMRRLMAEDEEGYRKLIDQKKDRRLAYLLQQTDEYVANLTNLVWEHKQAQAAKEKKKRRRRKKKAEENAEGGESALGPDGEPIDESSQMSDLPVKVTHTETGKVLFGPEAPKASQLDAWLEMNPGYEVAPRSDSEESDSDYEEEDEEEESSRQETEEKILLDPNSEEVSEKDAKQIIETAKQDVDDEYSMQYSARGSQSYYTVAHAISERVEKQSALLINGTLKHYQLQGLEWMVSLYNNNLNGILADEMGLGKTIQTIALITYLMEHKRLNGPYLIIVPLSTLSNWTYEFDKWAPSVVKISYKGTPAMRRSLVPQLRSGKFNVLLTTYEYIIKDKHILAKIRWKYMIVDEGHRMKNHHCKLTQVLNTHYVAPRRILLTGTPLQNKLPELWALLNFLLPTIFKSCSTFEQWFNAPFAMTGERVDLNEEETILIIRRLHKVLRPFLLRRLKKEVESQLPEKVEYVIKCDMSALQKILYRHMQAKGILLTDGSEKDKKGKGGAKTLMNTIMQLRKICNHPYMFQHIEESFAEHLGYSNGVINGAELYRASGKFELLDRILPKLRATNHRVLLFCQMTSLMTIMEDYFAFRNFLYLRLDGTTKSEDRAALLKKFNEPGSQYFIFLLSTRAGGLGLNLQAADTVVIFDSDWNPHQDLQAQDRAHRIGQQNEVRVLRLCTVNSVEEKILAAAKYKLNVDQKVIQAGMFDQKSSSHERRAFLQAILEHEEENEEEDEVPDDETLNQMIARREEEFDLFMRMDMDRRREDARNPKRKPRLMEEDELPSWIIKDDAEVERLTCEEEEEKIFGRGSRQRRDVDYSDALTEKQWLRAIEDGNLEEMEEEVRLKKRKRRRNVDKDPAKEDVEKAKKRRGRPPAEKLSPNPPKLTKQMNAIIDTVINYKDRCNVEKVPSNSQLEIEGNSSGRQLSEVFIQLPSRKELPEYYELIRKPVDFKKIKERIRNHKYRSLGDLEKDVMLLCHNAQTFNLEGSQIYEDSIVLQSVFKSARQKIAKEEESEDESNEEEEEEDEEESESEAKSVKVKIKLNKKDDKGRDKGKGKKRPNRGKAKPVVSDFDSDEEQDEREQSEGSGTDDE
T1 sequence (P51532 whole entry): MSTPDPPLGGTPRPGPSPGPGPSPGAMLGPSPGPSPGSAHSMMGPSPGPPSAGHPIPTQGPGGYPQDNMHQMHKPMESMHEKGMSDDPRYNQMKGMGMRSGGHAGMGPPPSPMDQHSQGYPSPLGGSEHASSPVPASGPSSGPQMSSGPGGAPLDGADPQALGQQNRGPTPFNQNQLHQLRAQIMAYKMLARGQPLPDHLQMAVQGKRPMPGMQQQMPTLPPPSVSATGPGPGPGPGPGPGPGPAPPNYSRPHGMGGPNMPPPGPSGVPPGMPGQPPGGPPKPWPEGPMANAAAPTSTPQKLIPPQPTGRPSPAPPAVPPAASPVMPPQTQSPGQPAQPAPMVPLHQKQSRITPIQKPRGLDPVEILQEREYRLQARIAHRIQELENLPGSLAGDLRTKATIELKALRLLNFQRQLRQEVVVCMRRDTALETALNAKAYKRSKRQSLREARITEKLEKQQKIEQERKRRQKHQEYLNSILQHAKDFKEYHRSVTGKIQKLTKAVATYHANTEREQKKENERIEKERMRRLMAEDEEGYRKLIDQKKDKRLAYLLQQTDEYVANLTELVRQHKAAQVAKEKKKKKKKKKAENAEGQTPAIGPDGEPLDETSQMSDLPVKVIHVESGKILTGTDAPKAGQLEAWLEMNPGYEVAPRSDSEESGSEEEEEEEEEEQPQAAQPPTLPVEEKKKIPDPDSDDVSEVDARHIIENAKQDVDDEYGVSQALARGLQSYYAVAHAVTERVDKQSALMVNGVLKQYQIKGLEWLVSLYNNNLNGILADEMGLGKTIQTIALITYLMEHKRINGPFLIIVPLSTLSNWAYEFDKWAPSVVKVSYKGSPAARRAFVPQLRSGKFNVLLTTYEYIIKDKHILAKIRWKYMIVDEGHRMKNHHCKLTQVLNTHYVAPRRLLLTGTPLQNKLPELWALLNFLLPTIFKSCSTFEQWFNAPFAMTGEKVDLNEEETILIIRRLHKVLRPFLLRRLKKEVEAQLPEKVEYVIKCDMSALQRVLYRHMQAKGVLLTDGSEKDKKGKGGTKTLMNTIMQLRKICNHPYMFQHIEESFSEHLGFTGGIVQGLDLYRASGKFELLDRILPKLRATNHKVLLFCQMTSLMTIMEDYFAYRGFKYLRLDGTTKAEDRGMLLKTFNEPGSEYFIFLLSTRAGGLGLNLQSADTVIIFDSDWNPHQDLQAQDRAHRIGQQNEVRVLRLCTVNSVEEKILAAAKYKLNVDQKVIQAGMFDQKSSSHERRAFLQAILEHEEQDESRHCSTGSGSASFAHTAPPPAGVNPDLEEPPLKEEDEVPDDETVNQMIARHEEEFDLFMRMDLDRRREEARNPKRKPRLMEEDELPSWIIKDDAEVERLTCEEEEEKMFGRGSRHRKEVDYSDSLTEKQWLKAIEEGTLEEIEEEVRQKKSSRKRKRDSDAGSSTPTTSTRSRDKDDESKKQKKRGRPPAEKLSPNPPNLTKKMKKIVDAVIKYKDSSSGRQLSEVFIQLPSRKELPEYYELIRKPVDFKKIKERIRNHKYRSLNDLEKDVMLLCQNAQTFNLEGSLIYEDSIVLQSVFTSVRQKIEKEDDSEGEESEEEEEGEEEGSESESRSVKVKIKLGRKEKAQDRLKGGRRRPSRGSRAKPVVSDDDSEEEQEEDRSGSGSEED

Compound | Dmax [1] [%] | DC50 [1] [nM] | Dmax [2] [%] | DC50 [2] [nM] | Selectivity in MV411 [2] | Dmax [3] [%] | DC50 [3] [nM]
C#Cc1ccc(CNC(=O)[C@@H]2C[C@@H](O)CN2C(=O)C(c2cc(N3CCC(CN4CCC(N5CCC(N6CCN7c8cc(-c9ccccc9O)nnc8NC[C@H]7C6)CC5)CC4)CC3)no2)C(C)C)c(Cl)c1 (some centres unmarked) [I-325] | > 90 | 10 to 100 | > 90 | 1 to 10 | C (C (10-100 fold)) | > 90 | 10 to 50
C#Cc1ccc([C@@H](C)NC(=O)[C@@H]2C[C@@H](O)CN2C(=O)C(c2cc(N3CCC(CN4CCC(N5CCC(N6CCN7c8cc(-c9ccccc9O)nnc8NC[C@H]7C6)CC5)CC4)CC3)no2)C(C)C)c(Cl)c1 (some centres unmarked) [I-327] | 70 to 90 | > 100 | 70 to 90 | 10 to 100 | C (C (10-100 fold)) | > 90 | 50 to 100
C#Cc1cc(Cl)c(CNC(=O)[C@@H]2C[C@@H](O)CN2C(=O)[C@@H](NC(=O)[C@H]2CC3(C2)C[C@H](N2CCC(N4CCC(N5CCN6c7cc(-c8ccccc8O)nnc7NC[C@H]6C5)CC4)CC2)C3)C(C)(C)C)c(OC)c1 (some centres unmarked) [I-329] | – | > 100 | – | – | D (D (<10 fold)) | – | > 100
C#Cc1cnc(CNC(=O)[C@@H]2C[C@@H](O)CN2C(=O)[C@@H](NC(=O)[C@H]2CC3(C2)C[C@H](N2CCC(N4CCC(N5CCN6c7cc(-c8ccccc8O)nnc7NC[C@H]6C5)CC4)CC2)C3)C(C)(C)C)c(OC)c1 (some centres unmarked) [I-331] | – | > 100 | – | – | C (C (10-100 fold)) | – | > 100
C#Cc1ccc([C@H](C)NC(=O)[C@@H]2C[C@@H](O)CN2C(=O)C(c2cc(N3CC4(CC(N5CCC(N6CCC(N7CCN8c9cc(-c%10ccccc%10O)nnc9NC[C@H]8C7)CC6)CC5)C4)C3)no2)C(C)C)cc1 (some centres unmarked) [I-332] | > 90 | 1 to 10 | > 90 | < 1 | C (C (10-100 fold)) | > 90 | < 10
C#Cc1ccc(CNC(=O)[C@@H]2C[C@@H](O)CN2C(=O)[C@@H](NC(=O)N2CC3(CC(N4CCC(c5cnc(N6CCc7[nH]c8nnc(-c9ccccc9O)cc8c7[C@@H]6C)s5)CC4)C3)C2)C(C)(C)C)cc1 [I-335] | 70 to 90 | > 100 | 50 to 70 | 10 to 100 | D (D (<10 fold)) | 70 to 90 | > 100
C#Cc1ccc(CNC(=O)[C@@H]2C[C@@H](O)CN2C(=O)[C@H](NC(=O)N2CC3(CC(N4CCC(c5cnc(N6CCc7[nH]c8nnc(-c9ccccc9O)cc8c7[C@H]6C)nc5)CC4)C3)C2)C(C)(C)CCN2CCNCC2)cc1 [I-339] | < 50 | > 100 | < 50 | > 100 | C (C (10-100 fold)) | < 50 | > 100
C#Cc1ccc(CNC(=O)[C@@H]2C[C@@H](O)CN2C(=O)[C@@H](NC(=O)N2CC3(CC(N4CCC(c5cnc(N6CCc7[nH]c8nnc(-c9ccccc9O)cc8c7[C@H]6C)nc5)CC4)C3)C2)C(C)(C)CCN2CCNCC2)cc1 [I-340] | < 50 | > 100 | < 50 | > 100 | C (C (10-100 fold)) | 50 to 70 | > 100
C#Cc1ccc(CNC(=O)[C@@H]2C[C@@H](O)CN2C(=O)[C@H](NC(=O)N2CC3(CC(N4CCC(c5cnc(N6CCc7[nH]c8nnc(-c9ccccc9O)cc8c7[C@H]6C)nc5)CC4)C3)C2)C(C)(C)CCN2CCN[C@@H](C(=O)O)C2)cc1 [I-341] | < 50 | > 100 | < 50 | > 100 | C (C (10-100 fold)) | < 50 | > 100
C#Cc1ccc(CNC(=O)[C@@H]2C[C@@H](O)CN2C(=O)[C@@H](NC(=O)N2CC3(CC(N4CCC(c5cnc(N6CCc7[nH]c8nnc(-c9ccccc9O)cc8c7[C@H]6C)nc5)CC4)C3)C2)C(C)(C)CCN2CCN[C@@H](C(=O)O)C2)cc1 [I-342] | < 50 | > 100 | < 50 | > 100 | C (C (10-100 fold)) | < 50 | > 100
C#Cc1ccc(CNC(=O)[C@@H]2C[C@@H](O)CN2C(=O)[C@H](NC(=O)N2CC3(CC(N4CCC(c5cnc(N6CCc7[nH]c8nnc(-c9ccccc9O)cc8c7[C@H]6C)nc5)CC4)C3)C2)C(C)(C)CCN2CCN[C@H](C(=O)O)C2)cc1 [I-343] | < 50 | > 100 | < 50 | > 100 | C (C (10-100 fold)) | < 50 | > 100
C#Cc1ccc(CNC(=O)[C@@H]2C[C@@H](O)CN2C(=O)[C@@H](NC(=O)N2CC3(CC(N4CCC(c5cnc(N6CCc7[nH]c8nnc(-c9ccccc9O)cc8c7[C@H]6C)nc5)CC4)C3)C2)C(C)(C)CCN2CCN[C@H](C(=O)O)C2)cc1 [I-344] | < 50 | > 100 | < 50 | > 100 | C (C (10-100 fold)) | < 50 | > 100
C#Cc1ccc([C@H](C)NC(=O)[C@@H]2C[C@@H](O)CN2C(=O)[C@@H](NC(=O)[C@H]2CC3(C2)C[C@H](c2cnc(N4CCC(N5CCN6c7cc(-c8ccccc8O)nnc7NC[C@H]6C5)CC4)nc2)C3)C(C)(C)C)cc1 (some centres unmarked) [I-362] | 70 to 90 | > 100 | 70 to 90 | 1 to 10 | C (C (10-100 fold)) | > 90 | 10 to 50
C#Cc1ccc([C@H](C)NC(=O)[C@@H]2C[C@@H](O)CN2C(=O)[C@@H](NC(=O)[C@H]2CC3(C2)C[C@H](c2cnc(N4CCC(N5CCN6c7cc(-c8ccccc8O)nnc7NC[C@H]6C5)CC4)nc2)C3)C(C)(C)C)cc1 (some centres unmarked) [I-363] | – | > 100 | – | 1 to 10 | C (C (10-100 fold)) | – | 10 to 50
C#Cc1ccc([C@H](C)NC(=O)[C@@H]2C[C@@H](O)CN2C(=O)[C@@H](NC(=O)N2CC3(CC(N4CCN(c5cnc(N6CCc7[nH]c8nnc(-c9ccccc9O)cc8c7[C@H]6C)nc5)CC4)C3)C2)C(C)(C)CCO)cc1 [I-369] | 70 to 90 | > 100 | > 90 | 1 to 10 | C (C (10-100 fold)) | > 90 | < 10
C#Cc1c(F)cc(CNC(=O)[C@@H]2C[C@@H](O)CN2C(=O)[C@@H](NC(=O)N2CC3(CC(N4CCC(c5cnc(N6CCc7[nH]c8nnc(-c9ccccc9O)cc8c7[C@H]6C)nc5)CC4)C3)C2)C(C)(C)C)cc1F [I-402] | > 90 | > 100 | 70 to 90 | 1 to 10 | C (C (10-100 fold)) | > 90 | 10 to 50
C#Cc1cc(F)c(CNC(=O)[C@@H]2C[C@@H](O)CN2C(=O)[C@@H](NC(=O)N2CC3(CC(N4CCC(c5cnc(N6CCc7[nH]c8nnc(-c9ccccc9O)cc8c7[C@H]6C)nc5)CC4)C3)C2)C(C)(C)C)cc1F [I-403] | 70 to 90 | > 100 | 70 to 90 | 10 to 100 | C (C (10-100 fold)) | > 90 | 10 to 50
C#Cc1ccc(CNC(=O)[C@@H]2C[C@@H](O)CN2C(=O)[C@@H](NC(=O)N2CC3(CC(CN4CCC(c5cnc(N6CCc7[nH]c8nnc(-c9ccccc9O)cc8c7[C@H]6C)nc5)CC4)C3)C2)C(C)(C)C)cc1 [I-410] | 70 to 90 | > 100 | 70 to 90 | 1 to 10 | C (C (10-100 fold)) | > 90 | 10 to 50
C#Cc1ccc(CNC(=O)[C@@H]2C[C@@H](O)CN2C(=O)[C@@H](NC(=O)N2CC3(CC(CCN4CCC(c5cnc(N6CCc7[nH]c8nnc(-c9ccccc9O)cc8c7[C@H]6C)nc5)CC4)C3)C2)C(C)(C)C)cc1 [I-416] | > 90 | 10 to 100 | > 90 | 1 to 10 | C (C (10-100 fold)) | > 90 | 10 to 50

Reference: US20250170248A1, “SMARCA DEGRADERS AND USES THEREOF” (Kymera Therapeutics, Inc., priority 2021, published 2025)
